What was measured:
Format in all cases: physicochemical
[1] = Stress experiments of d-NTP solutions at 35° C., triphosphate content by HPLC; settings: pH 8.3 compared to pH 7.5, 35° C., three independent stress experiments, samples between 7 and 89 days
Procedure: d-NTP solutions at a concentration of 100 to 110 mmol/l were adjusted to pH values between 7.5 and 8.3 with sodium hydroxide solution. The sample was stored at 35° C., 22° C., 4° C. and −20° C. Aliquots were removed at various time points and the purity was examined by means of HPLC. The relative amount of the tri, di and monophosphate as well as of the free base was determined by integrating the areas. The stabilization was estimated by the following formula from three independent stress experiments of d-NTPs at pH 8.3 and 7.5 at 35° C. in which samples were taken at intervals between 7 and 89 days. Δ content (pH 8.3)−Δ content (7.5)×100 Δ content (pH 7.5) in which Δ content (pH . . . )=content (t=0)−content (t)

[2] = Stabilization at room temperature (real-time model, 204 days, 20° C.); settings: for difference in decrease of triphosphate content pH 8.3 vs pH 7.5: 204 days
Procedure: d-NTP solutions at a concentration of 100 to 110 mmol/l were adjusted to pH values between 7.5 and 8.3 with sodium hydroxide solution. The sample was stored at 35° C., 22° C., 4° C. and −20° C. Aliquots were removed at various time points and the purity was examined by means of HPLC. The relative amount of the tri, di and monophosphate as well as of the free base was determined by integrating the areas.
After 204 days (20° C.) the difference in the pH stabilization became apparent (in the real-time model). […] In the case of d-GTP solutions the triphosphate content decreased for example by ca. 6.8% at pH 7.5 and by ca. 5.2% at pH 8.3 (difference 23%).

[3] = Determination of the pH optimum of the d-NTPs (35 days at 35° C., HPLC); settings: 100 to 110 mmol/l
Procedure: d-NTP solutions (dCTP, dTTP, dUTP) at a concentration of 100 to 110 mmol/l were adjusted to pH values between 7.5 and 12 (d-ATP, dGTP not pH 7.9 and 8.3) with sodium hydroxide solution. The sample was stressed for 35 days at 35° C. and subsequently the purity was examined by means of HPLC. The relative amount of the tri, di and monophosphate as well as of the free base was determined by integrating the areas.

Compound | stabilization, average value [1] | stabilization, maximum value [1] | stabilization, minimum value [1] | difference in decrease of triphosphate content pH 8.3 vs pH 7.5 [2] | decrease of triphosphate content ([2]; pH 7.5, 204 days) | decrease of triphosphate content ([2]; pH 8.3, 204 days) | degradation up to pH 12 [3]
Nc1ncnc2c1ncn2[C@H]1C[C@H](O)[C@@H](COP(=O)(O)OP(=O)(O)OP(=O)(O)O)O1 [d-ATP] | 19% | 33% | 9% | 17% | ca. 7.6% | ca. 6.3% | 
Nc1ccn([C@H]2C[C@H](O)[C@@H](COP(=O)(O)OP(=O)(O)OP(=O)(O)O)O2)c(=O)n1 [d-CTP] | 20% | 37% | 10% |  |  |  | deaminated at pH 12 to form d-UTP
Nc1nc2c(ncn2[C@H]2C[C@H](O)[C@@H](COP(=O)(O)OP(=O)(O)OP(=O)(O)O)O2)c(=O)[nH]1 [d-GTP] | 21% | 30% | 12% | 23% | ca. 6.8% | ca. 5.2% | 

Continued, values first:

stabilization, average value [1] | stabilization, maximum value [1] | stabilization, minimum value [1] | difference in decrease of triphosphate content pH 8.3 vs pH 7.5 [2] | decrease of triphosphate content ([2]; pH 7.5, 204 days) | decrease of triphosphate content ([2]; pH 8.3, 204 days) | degradation up to pH 12 [3] | Compound
5% | 17% | 26% |  |  |  |  | Cc1cn([C@H]2C[C@H](O)[C@@H](COP(=O)(O)OP(=O)(O)OP(=O)(O)O)O2)c(=O)[nH]c1=O [d-TTP]
5% | 15% | 25% |  |  |  |  | O=c1ccn([C@H]2C[C@H](O)[C@@H](COP(=O)(O)OP(=O)(O)OP(=O)(O)O)O2)c(=O)[nH]1 [d-UTP]
